Test system: patients with refractory metastatic colorectal cancer (mCRC)
Assay: PFS, OS and disease control in the training (evaluation) cohort of refractory mCRC patients receiving TAS-102 (n=52, Japan), by baseline characteristics, SNP genotype and toxicity
Format: in vivo, human
Conditions: evaluation cohort
Procedure: All patients underwent the treatment in salvage-line setting. […]
(§1) Genomic DNA was extracted from peripheral whole blood in patients of all cohorts using the QIAmp Kit (Qiagen, Valencia, Calif., USA) according to the manufacturer's protocol (www.qiagen.com). The candidate SNPs were genotyped using PCR-based direct DNA sequence analysis by ABI 3100A Capillary Genetic Analyzer and Sequencing Scanner v1.0 (Applied Biosystems). Amplification of extracted DNA was carried out using both forward and reverse primers for each gene polymorphism as shown in Table 1. […] The investigators analyzing SNPs were blinded to the clinical data of the study patients.
The primary endpoint in this study was progression-free survival (PFS), and the secondary endpoints were overall survival (OS) and disease control rate (DCR). PFS was calculated from the date of starting treatment to the first observation of disease progression or death from any cause. If a patient had no disease progression or death, PFS was censored at the date of last follow up. OS was calculated from the date of starting treatment until the date of death from any cause or the date of the last follow-up, at which point OS was censored. The disease control rate (DCR) was defined as the proportion of patients who achieved a stable disease (SD) or […] according to RECISTv1.1. Chi-square test was used to examine the difference in baseline patient characteristics among the three cohorts. Allelic distribution of all SNPs by ethnicity for deviation from Hardy-Weinberg equilibrium and the allelic frequencies of SNPs were tested using the Chi-square tests with one degree of freedom. The associations between candidate SNPs and disease control, and toxicities were examined using contingency tables and Fisher's exact test. The associations of SNPs with PFS and OS were analysed using Kaplan-Meier curves and the log-rank test. Because the true mode of inheritance of candidate SNPs was not established yet, a codominant or dominant genetic model if appropriate was considered.
All patients underwent the treatment in salvage-line setting. […] In all patients, adverse events were graded according to the Common Terminology Criteria for Adverse Events, version 4.0. […]
as §1, with “tested” for “genotyped”, “Biosystems).” for “Biosystems). Amplification of extracted DNA was carried out using both forward and reverse primers for each gene polymorphism as shown in Table 1.”, “data.” for “data of the study patients.”
The primary endpoint in this study was progression-free survival (PFS), and the secondary endpoints were overall survival (OS) and disease control rate (DCR).

[1] = CHEK2 rs2267130 Any C vs T/T (Ref.), multivariable
[2] = CHEK2 rs2267130 Any C vs T/T (Ref.), univariate
[3] = CHEK2 rs2267130 C/C vs T/T (Ref.), multivariable
[4] = CHEK2 rs2267130 C/C vs T/T (Ref.), univariate
[5] = CHEK2 rs2267130 T/C vs T/T (Ref.), multivariable
[6] = CHEK2 rs2267130 T/C vs T/T (Ref.), univariate
[7] = Che1 rs1564796 T/C and C/C grouped together
[8] = FANCD2 rs6792811 G/A and G/G grouped together

## Trifluridine/tipiracil [TAS-102]
BRCA1 rs16941 T/C
  PD, patients n (%): 15 (68%)
BRCA1 rs16941 T/T
  Disease Control Rate SD, patients n (%): 7 (37%)
  PD, patients n (%): 12 (63%)
BRCA1 rs799917 A/A
  Disease Control Rate SD, patients n (%): 1 (20%)
  PD, patients n (%): 4 (80%)
BRCA1 rs799917 Any A
  Disease Control Rate SD, patients n (%): 8 (30%)
  PD, patients n (%): 19 (70%)
BRCA1 rs799917 G/A
  Disease Control Rate SD, patients n (%): 7 (32%)
  PD, patients n (%): 15 (68%)
BRCA1 rs799917 G/G
  Disease Control Rate SD, patients n (%): 7 (37%)
  PD, patients n (%): 12 (63%)
BRCA2 rs144848 A/A
  Disease Control Rate SD, patients n (%): 8 (29%)
  PD, patients n (%): 20 (71%)
BRCA2 rs144848 A/C
  Disease Control Rate SD, patients n (%): 6 (46%)
  PD, patients n (%): 7 (54%)
BRCA2 rs144848 Any C
  Disease Control Rate SD, patients n (%): 7 (39%)
  PD, patients n (%): 11 (61%)
BRCA2 rs144848 C/C
  Disease Control Rate SD, patients n (%): 1 (20%)
  PD, patients n (%): 4 (80%)
CHEK2 rs2267130 Any C
  Disease Control CR/PR/SD, patients n (%): 12 (46%)
  Median OS (95% CI): 8.3 (5.7, 15.6+) months
  Median PFS (95% CI): 3.4 (2.1, 4.6) months
  PD, patients n (%): 14 (54%)
[1]
  HR OS (95% CI): 0.71 (0.29, 1.77)
  HR PFS (95% CI): 0.49 (0.26, 0.94)
[2]
  HR OS (95% CI): 0.71 (0.29, 1.74)
  HR PFS (95% CI): 0.48 (0.25, 0.90)
CHEK2 rs2267130 C/C
  Disease Control CR/PR/SD, patients n (%): 3 (43%)
  Median OS (95% CI): 5.7 (1.4, 10.7+) months
  Median PFS (95% CI): 2.7 (0.9, 4.6+) months
  PD, patients n (%): 4 (57%)
[3]
  HR OS (95% CI): 1.31 (0.39, 4.42)
  HR PFS (95% CI): 0.59 (0.23, 1.51)
[4]
  HR OS (95% CI): 1.21 (0.37, 3.99)
  HR PFS (95% CI): 0.62 (0.25, 1.58)
CHEK2 rs2267130 T/C
  Disease Control CR/PR/SD, patients n (%): 9 (47%)
  Median OS (95% CI): 12.4 (6.3, 15.6+) months
  Median PFS (95% CI): 3.7 (2.1, 5.2) months
  PD, patients n (%): 10 (53%)
[5]
  HR OS (95% CI): 0.56 (0.20, 1.55)
  HR PFS (95% CI): 0.46 (0.22, 0.94)
[6]
  HR OS (95% CI): 0.59 (0.22, 1.60)
  HR PFS (95% CI): 0.44 (0.22, 0.89)
CHEK2 rs2267130 T/T
  Disease Control CR/PR/SD, patients n (%): 3 (15%)
  Median OS (95% CI): 8.1 (4.4, 8.7+) months
  Median PFS (95% CI): 2.1 (1.6, 2.9) months
  PD, patients n (%): 17 (85%)
  PFS: 2.1 months
CHEK2 rs22236142 Any C
  Disease Control Rate SD, patients n (%): 7 (27%)
  PD, patients n (%): 19 (73%)
CHEK2 rs22236142 C/C
  Disease Control Rate SD, patients n (%): 2 (25%)
  PD, patients n (%): 6 (75%)
CHEK2 rs22236142 G/C
  Disease Control Rate SD, patients n (%): 5 (28%)
  PD, patients n (%): 13 (72%)
CHEK2 rs22236142 G/G
  Disease Control Rate SD, patients n (%): 8 (40%)
  PD, patients n (%): 12 (60%)
Che1 rs1045056 T/C
  Disease Control Rate SD, patients n (%): 2 (22%)
  PD, patients n (%): 7 (78%)
Che1 rs1045056 T/T
  Disease Control Rate SD, patients n (%): 13 (35%)
  PD, patients n (%): 24 (65%)
[7]
  Disease Control Rate SD, patients n (%): 3 (25%)
  PD, patients n (%): 8 (67%)
Che1 rs1564796 T/T
  Disease Control Rate SD, patients n (%): 12 (34%)
  PD, patients n (%): 23 (66%)
FANCD2 rs2272125 T/G
  Disease Control Rate SD, patients n (%): 3 (50%)
  PD, patients n (%): 3 (50%)
FANCD2 rs2272125 T/T
  Disease Control Rate SD, patients n (%): 12 (30%)
  PD, patients n (%): 28 (70%)
FANCD2 rs6792811 A/A
  Disease Control Rate SD, patients n (%): 10 (33%)
  PD, patients n (%): 20 (67%)
[8]
  Disease Control Rate SD, patients n (%): 5 (29%)
  PD, patients n (%): 11 (71%)
PCNA rs25406 A/A
  Disease Control Rate SD, patients n (%): 4 (36%)
  PD, patients n (%): 7 (64%)
PCNA rs25406 Any A
  Disease Control Rate SD, patients n (%): 12 (44%)
  PD, patients n (%): 15 (56%)
PCNA rs25406 G/A
  Disease Control Rate SD, patients n (%): 8 (50%)
  PD, patients n (%): 8 (50%)
PCNA rs25406 G/G
  Disease Control Rate SD, patients n (%): 3 (19%)
  PD, patients n (%): 13 (81%)
Pin1 rs2233678 G/C
  Disease Control Rate SD, patients n (%): 0%
  PD, patients n (%): 2 (100%)
Pin1 rs2233678 G/G
  Disease Control Rate SD, patients n (%): 15 (34%)
  PD, patients n (%): 29 (66%)
Pin1 rs2233679 Any T
  Disease Control Rate SD, patients n (%): 11 (38%)
  PD, patients n (%): 18 (62%)
Pin1 rs2233679 C/C
  Disease Control Rate SD, patients n (%): 4 (24%)
  PD, patients n (%): 13 (76%)
Pin1 rs2233679 C/T
  Disease Control Rate SD, patients n (%): 8 (36%)
  PD, patients n (%): 14 (64%)
Pin1 rs2233679 T/T
  Disease Control Rate SD, patients n (%): 3 (43%)
